We go through 68 molecules from patent US9181273B2, “Morpholine-spirocyclic piperidine amides as modulators of ion channels” (Vertex Pharmaceuticals Incorporated, priority 2011, dated 2015).

pIC50: −log10 of the molar value.

Usually pIC50 stands for −log10 of the IC50, conventionally taken in molar units.

The experiment deals with human NaV subtype, like NaV 1.7 (Homo sapiens, UniProt Q15858). Kind of experiment: E-VIPR optical membrane potential assay with electrical stimulation. The following applies: active against one or more sodium channels; assay and NaV subtype not specified for Table 3; read-out: IC50 Binned Activity Data. Format: cell-based.
Sequence of human NaV subtype, like NaV 1.7 (Q15858 whole entry): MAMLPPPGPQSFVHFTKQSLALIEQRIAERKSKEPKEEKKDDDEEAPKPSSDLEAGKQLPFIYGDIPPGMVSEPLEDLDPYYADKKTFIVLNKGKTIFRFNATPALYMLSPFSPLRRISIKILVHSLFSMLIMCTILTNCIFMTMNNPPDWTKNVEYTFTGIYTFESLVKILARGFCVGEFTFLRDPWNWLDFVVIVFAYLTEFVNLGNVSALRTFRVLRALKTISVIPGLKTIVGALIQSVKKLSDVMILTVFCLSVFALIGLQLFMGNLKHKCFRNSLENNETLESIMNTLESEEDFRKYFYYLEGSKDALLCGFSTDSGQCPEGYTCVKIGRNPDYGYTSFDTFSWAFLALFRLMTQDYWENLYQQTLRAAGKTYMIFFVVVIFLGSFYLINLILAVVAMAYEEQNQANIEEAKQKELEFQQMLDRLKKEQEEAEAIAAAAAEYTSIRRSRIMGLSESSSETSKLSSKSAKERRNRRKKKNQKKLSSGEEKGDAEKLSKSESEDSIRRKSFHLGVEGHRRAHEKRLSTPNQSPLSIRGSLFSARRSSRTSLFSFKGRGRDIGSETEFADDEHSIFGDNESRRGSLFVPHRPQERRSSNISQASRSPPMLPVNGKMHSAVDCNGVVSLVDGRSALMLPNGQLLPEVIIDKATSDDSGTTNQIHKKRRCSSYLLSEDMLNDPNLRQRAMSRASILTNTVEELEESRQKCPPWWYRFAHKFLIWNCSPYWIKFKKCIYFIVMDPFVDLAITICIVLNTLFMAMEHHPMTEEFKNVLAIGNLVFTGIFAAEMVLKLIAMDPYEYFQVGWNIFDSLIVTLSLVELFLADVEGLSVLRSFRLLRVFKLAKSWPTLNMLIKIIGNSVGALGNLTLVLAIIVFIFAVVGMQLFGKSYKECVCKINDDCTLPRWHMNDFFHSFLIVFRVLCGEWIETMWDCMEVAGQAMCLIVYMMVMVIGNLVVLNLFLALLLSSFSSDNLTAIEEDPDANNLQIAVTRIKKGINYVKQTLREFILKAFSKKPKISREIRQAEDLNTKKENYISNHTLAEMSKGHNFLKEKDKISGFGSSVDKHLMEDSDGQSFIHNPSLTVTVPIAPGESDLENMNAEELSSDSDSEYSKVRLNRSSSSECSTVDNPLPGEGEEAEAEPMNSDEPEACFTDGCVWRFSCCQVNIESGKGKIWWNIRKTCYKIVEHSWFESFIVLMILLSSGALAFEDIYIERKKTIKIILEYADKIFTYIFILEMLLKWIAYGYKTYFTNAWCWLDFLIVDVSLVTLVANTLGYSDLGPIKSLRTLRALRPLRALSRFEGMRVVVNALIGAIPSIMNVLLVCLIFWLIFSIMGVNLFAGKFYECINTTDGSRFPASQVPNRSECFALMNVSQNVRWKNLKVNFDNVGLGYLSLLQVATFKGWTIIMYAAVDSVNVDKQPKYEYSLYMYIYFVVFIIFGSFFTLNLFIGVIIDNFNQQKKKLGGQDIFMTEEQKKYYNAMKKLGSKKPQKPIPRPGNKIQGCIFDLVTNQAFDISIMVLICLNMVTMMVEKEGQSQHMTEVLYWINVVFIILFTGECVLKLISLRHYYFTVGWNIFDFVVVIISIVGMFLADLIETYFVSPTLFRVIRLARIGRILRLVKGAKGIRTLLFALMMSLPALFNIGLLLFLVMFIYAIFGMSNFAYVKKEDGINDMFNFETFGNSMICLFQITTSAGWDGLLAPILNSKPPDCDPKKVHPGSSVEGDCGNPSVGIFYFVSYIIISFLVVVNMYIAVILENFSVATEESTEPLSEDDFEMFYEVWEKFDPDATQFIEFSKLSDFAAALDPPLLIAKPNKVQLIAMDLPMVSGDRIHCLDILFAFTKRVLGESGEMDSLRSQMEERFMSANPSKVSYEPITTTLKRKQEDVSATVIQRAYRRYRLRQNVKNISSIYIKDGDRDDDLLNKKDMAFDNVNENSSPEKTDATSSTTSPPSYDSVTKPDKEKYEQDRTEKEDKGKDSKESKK
Take `COc1ccc(C(=O)N2CCC3(CC2)CN(CCC(C)C)C(=O)C(c2ccccc2)O3)cc1C(F)(F)F` (centres unmarked) [Compound 186]: the pIC50 is above 5.70.

As to `COCC1CN(c2ncccn2)CC2(CCN(C(=O)c3ccc(C(C)(C)O)c(C)c3)CC2)O1` (centres unmarked) [Compound 267], the negative logarithm of the IC50 (pIC50) is 5.30 to 5.70.

As for `Cc1cc(C(=O)N2CCC3(CC2)CN(c2ncccn2)CC(CO)O3)ccc1OC(C)C` (centres unmarked) [Compound 92], the pIC50 was below 5.30.

As to `COCC1CN(CCSC)CC2(CCN(C(=O)c3ccc(OC(C)C)c(C)c3)CC2)O1` (centres unmarked) [Compound 184], the negative-log IC50 (pIC50) is above 5.70.

`COCC1CN(c2ncccn2)CC2(CCN(C(=O)c3ccc(OC)c(C(F)(F)F)c3)CC2)O1` (centres unmarked) [Compound 284]: the pIC50 is above 5.70.

Take `COc1cc(C(=O)N2CCC3(CC2)CN(CC(F)F)C(c2ccccc2)CO3)ccc1OC(C)C` (centres unmarked) [Compound 100]: the pIC50 was above 5.70.

For `CC(C)(O)c1ccc(C(=O)N2CCC3(CC2)CN(CC(F)F)CC(c2ccccc2)O3)cc1` (centres unmarked) [Compound 241], the pIC50 is 5.30 to 5.70.

For `Cc1cc(C(=O)N2CCC3(CC2)CN(c2ncccn2)CC(COC(F)F)O3)ccc1OC(C)C` (centres unmarked) [Compound 171], the pIC50 is above 5.70.

Regarding `COCC1CN(C2CCC(F)(F)CC2)CC2(CCN(C(=O)c3ccc(OC(C)C)c(C)c3)CC2)O1` (centres unmarked) [Compound 220], the pIC50 was above 5.70.

For `CC(C)(C)Oc1ccc(C(=O)N2CCC3(CC2)CN(CC(F)(F)F)CC(c2ccccc2)O3)nc1` (centres unmarked) [Compound 13], the pIC50 is above 5.70.

In the case of `COCC1CN(c2ncccn2)CC2(CCN(C(=O)c3ccc(OC(C)C)c(CO)c3)CC2)O1` (centres unmarked) [Compound 15], the pIC50 is below 5.30.

Regarding `Cc1cc(C(=O)N2CCC3(CC2)CN(Cc2ccccc2)CC(C(C)(C)O)O3)ccc1OC(C)C` (centres unmarked) [Compound 179], the negative-log IC50 (pIC50) was below 5.30.

As to `COCC1CN(CC(=O)OC)CC2(CCN(C(=O)c3ccc(OC(C)C)c(C)c3)CC2)O1` (centres unmarked) [Compound 215], the pIC50 is 5.30 to 5.70.

On to `CCC1CN(C(C)(C)C)CC2(CCN(C(=O)c3ccc(OC(C)C)c(C)c3)CC2)O1` (centres unmarked) [Compound 18], for which the pIC50 is above 5.70.

`COCC1CN(CC2CC2)CC2(CCN(C(=O)c3ccc(OC(C)C)c(C)c3)CC2)O1` (centres unmarked) [Compound 287]: the negative logarithm of the IC50 (pIC50) is above 5.70.

On to `Cc1cc(C(=O)N2CCC3(CC2)CN(CC(F)(F)F)[C@H](C)[C@@H](c2ccccc2)O3)ccc1OC(C)C` [Compound 123], for which the pIC50 is 5.30 to 5.70.

On to `COCC1CN(CCC(C)C)CC2(CCN(C(=O)c3ccc(OC(C)C)c(C)c3)CC2)O1` (centres unmarked) [Compound 147], for which the negative logarithm of the IC50 (pIC50) is above 5.70.

Consider `CC(C)CS(=O)(=O)c1ccc(C(=O)N2CCC3(CC2)CN(CC(F)F)CC(c2ccc(F)cc2)O3)cc1` (centres unmarked) [Compound 109], for which the pIC50 was 5.30 to 5.70.

Regarding `COCC1CN(Cc2cocn2)CC2(CCN(C(=O)c3ccc(OC(C)C)c(C)c3)CC2)O1` (centres unmarked) [Compound 64], the pIC50 was below 5.30.

Consider `Cc1cc(S(C)(=O)=O)ccc1C(=O)N1CCC2(CC1)CN(CC(F)(F)F)CC(c1ccccc1)O2` (centres unmarked) [Compound 108], for which the pIC50 is below 5.30.

For `Cc1cc(C(=O)N2CCC3(CC2)CN(CC(F)F)CC(c2ccc(F)cc2)O3)ccc1OCCCO` (centres unmarked) [Compound 81], the negative logarithm of the IC50 (pIC50) was below 5.30.

On to `COCC1CN(C2COC2)CC2(CCN(C(=O)c3ccc(OC(C)C)c(C)c3)CC2)O1` (centres unmarked) [Compound 255], for which the pIC50 is below 5.30.

As to `COCC1CN(c2ncccn2)CC2(CCN(C(=O)c3ccc(OC(C)C)c(C)n3)CC2)O1` (centres unmarked) [Compound 282], the pIC50 is above 5.70.

`Cc1cccc(C2CN(CC(F)F)CC3(CCN(C(=O)c4ccc(OC(C)C)c(F)c4)CC3)O2)n1` (centres unmarked) [Compound 195]: the pIC50 is above 5.70.

`COCC1CN(Cc2ccccc2)CC2(CCN(C(=O)c3ccc(OC(C)C)c(C)c3)CC2)O1` (centres unmarked) [Compound 169]: the negative logarithm of the IC50 (pIC50) was above 5.70.

With `CCN1CC(c2ccccc2)OC2(CCN(C(=O)c3ccc(OC(C)C)c(C)c3)CC2)C1` (centres unmarked) [Compound 22], the pIC50 is above 5.70.

On to `CCC1CN(c2ncccn2)CC2(CCN(C(=O)c3ccc(C4(O)CCC4)c(C)c3)CC2)O1` (centres unmarked) [Compound 91], for which the pIC50 is above 5.70.

Regarding `O=C(c1ccc(C2(O)COC2)cc1)N1CCC2(CC1)CN(CC(F)(F)F)CC(c1ccccc1)O2` (centres unmarked) [Compound 151], the negative-log IC50 (pIC50) is below 5.30.

For `Cc1cc(C(=O)N2CCC3(CC2)CN(c2ncccn2)CC(COC(C)C)O3)ccc1OC(C)C` (centres unmarked) [Compound 114], the negative logarithm of the IC50 (pIC50) was above 5.70.

For the molecule `Cc1cnc(C2CN(CC(F)(F)F)CC3(CCN(C(=O)c4ccc(OC(C)C)c(C)c4)CC3)O2)s1` (centres unmarked) [Compound 196], the pIC50 is above 5.70.

Take `Cc1cc(C(=O)N2CCC3(CC2)CN(CC(C)(C)O)CC(c2ccccc2)O3)ccc1OC(C)C` (centres unmarked) [Compound 24]: the negative-log IC50 (pIC50) was above 5.70.

For the molecule `Cc1cc(C(=O)N2CCC3(CC2)CN(CC(F)F)CC(c2ncc(C(C)C)o2)O3)ccc1OC(C)C` (centres unmarked) [Compound 88], the pIC50 is above 5.70.

In the case of `O=C(c1ccc(C(O)C2CC2)cc1)N1CCC2(CC1)CN(CC(F)(F)F)CC(c1ccccc1)O2` (centres unmarked) [Compound 59], the pIC50 is above 5.70.

In the case of `CC#CCN1CC(CF)OC2(CCN(C(=O)c3ccc(OC(C)C)c(C)c3)CC2)C1` (centres unmarked) [Compound 139], the negative-log IC50 (pIC50) is below 5.30.

Regarding `CCC1CN(c2ncccn2)CC2(CCN(C(=O)c3ccc(C(O)(CC)CC)c(C)c3)CC2)O1` (centres unmarked) [Compound 1], the negative logarithm of the IC50 (pIC50) was 5.30 to 5.70.

Consider `Cc1cc(C(=O)N2CCC3(CC2)CN(CC(F)(F)F)CC(c2ccccc2)O3)ccc1N1CCOCC1` (centres unmarked) [Compound 78], for which the pIC50 was above 5.70.

On to `Cc1nc2cccc(C(=O)N3CCC4(CC3)CN(CC(F)(F)F)CC(c3ccccc3)O4)c2o1` (centres unmarked) [Compound 116], for which the pIC50 is above 5.70.

Consider `COCC1CN(c2ncccn2)CC2(CCN(C(=O)c3ccc(OC(C)C)c(OC)c3)CC2)O1` (centres unmarked) [Compound 173], for which the pIC50 is 5.30 to 5.70.

Turning to `Cc1cnc(C2CN(CC(F)(F)F)CC3(CCN(C(=O)c4ccc(OC(C)C)c(C)c4)CC3)O2)o1` (centres unmarked) [Compound 309], the negative logarithm of the IC50 (pIC50) is above 5.70.

With `CCn1nccc1C1CN(CC(F)F)CC2(CCN(C(=O)c3ccc(OC(C)C)c(C)c3)CC2)O1` (centres unmarked) [Compound 20], the pIC50 was above 5.70.

As to `CC(C)Oc1ccc(C(=O)N2CCC3(CC2)CN(CC(F)(F)F)CC(c2ccccc2)O3)cc1` (centres unmarked) [Compound 119], the pIC50 was above 5.70.

For `Cc1nc(C(=O)N2CCC3(CC2)CN(CC(F)(F)F)CC(c2ccccc2)O3)ccc1OC(C)C` (centres unmarked) [Compound 42], the pIC50 is above 5.70.

For the molecule `Cc1cc(C(=O)N2CCC3(CC2)CN(CC(F)(F)F)CC(c2ccccc2)O3)ccc1OC(C)C` (centres unmarked) [Compound 301], the negative logarithm of the IC50 (pIC50) was above 5.70.

Turning to `Cc1cc(C2CN(CC(F)(F)F)CC3(CCN(C(=O)c4ccc(OC(C)C)c(C)c4)CC3)O2)n[nH]1` (centres unmarked) [Compound 26], the negative-log IC50 (pIC50) is 5.30 to 5.70.

As to `COCC1CN(C2CCC(C(C)C)CC2)CC2(CCN(C(=O)c3ccc(OC(C)C)c(C)c3)CC2)O1` (centres unmarked) [Compound 304], the pIC50 is above 5.70.

As to `CC(C)(O)COc1ccc(C(=O)N2CCC3(CC2)CN(CC(F)(F)F)CC(c2ccccc2)O3)cc1` (centres unmarked) [Compound 273], the pIC50 is 5.30 to 5.70.

On to `COCC1CN(CC2CCCCC2)CC2(CCN(C(=O)c3ccc(OC(C)C)c(C)c3)CC2)O1` (centres unmarked) [Compound 206], for which the pIC50 was above 5.70.

As for `Cc1cc(C(=O)N2CCC3(CC2)CN(Cc2ccccc2)CC(CO)O3)ccc1OC(C)C` (centres unmarked) [Compound 82], the pIC50 was 5.30 to 5.70.

With `CCC1CN(c2ccccn2)CC2(CCN(C(=O)c3ccc(C4(O)CCCC4)c(C)c3)CC2)O1` (centres unmarked) [Compound 103], the negative logarithm of the IC50 (pIC50) was above 5.70.

For `Cc1cccc(C2CN(CC(F)F)CC3(CCN(C(=O)c4ccc(C(C)(C)O)c(F)c4)CC3)O2)n1` (centres unmarked) [Compound 80], the pIC50 is below 5.30.

As for `COCC1CN(C(C)(C)C)CC2(CCN(C(=O)c3ccc(OC(C)C)c(C)c3)CC2)O1` (centres unmarked) [Compound 160], the pIC50 was 5.30 to 5.70.

In the case of `Cc1cc(C(=O)N2CCC3(CC2)CN(CC(F)F)CC(c2ccccn2)O3)ccc1OC(C)C` (centres unmarked) [Compound 33], the negative-log IC50 (pIC50) was above 5.70.

On to `COCC1CN(c2ncccn2)CC2(CCN(C(=O)c3ccc(C(O)C(C)C)cc3)CC2)O1` (centres unmarked) [Compound 197], for which the negative-log IC50 (pIC50) was 5.30 to 5.70.

For `CC(C)(O)Cc1ccc(C(=O)N2CCC3(CC2)CN(CC(F)(F)F)CC(c2ccccc2)O3)cc1F` (centres unmarked) [Compound 39], the negative-log IC50 (pIC50) was 5.30 to 5.70.

In the case of `CCn1ccc(C2CN(CC(F)F)CC3(CCN(C(=O)c4ccc(OC(C)C)c(C)c4)CC3)O2)n1` (centres unmarked) [Compound 229], the pIC50 is 5.30 to 5.70.

For the molecule `COCCCN1CC(COC)OC2(CCN(C(=O)c3ccc(OC(C)C)c(C)c3)CC2)C1` (centres unmarked) [Compound 175], the pIC50 is above 5.70.

In the case of `CC(C)Oc1ccc(C(=O)N2CCC3(CC2)CN(CC(F)F)CC(c2ncco2)O3)cc1F` (centres unmarked) [Compound 243], the pIC50 is above 5.70.

Take `O=C(c1ccc(S(=O)(=O)NC2CC2)cc1)N1CCC2(CC1)CN(CC(F)(F)F)CC(c1ccccc1)O2` (centres unmarked) [Compound 99]: the negative logarithm of the IC50 (pIC50) was above 5.70.

Consider `COCC#Cc1ccc(C(=O)N2CCC3(CC2)CN(CC(F)(F)F)CC(c2ccccc2)O3)cc1F` (centres unmarked) [Compound 56], for which the negative-log IC50 (pIC50) is 5.30 to 5.70.

As to `Cc1cc(C(=O)N2CCC3(CC2)CN(CC(F)F)CC(c2ccn(C)n2)O3)ccc1OC(C)C` (centres unmarked) [Compound 306], the negative logarithm of the IC50 (pIC50) is above 5.70.

As for `Cc1cc(C(=O)N2CCC3(CC2)CN(CC(F)F)CC(c2ccc(Cl)cc2)O3)ccc1OC(C)C` (centres unmarked) [Compound 122], the negative logarithm of the IC50 (pIC50) was below 5.30.

As to `Cc1cc(C(=O)N2CCC3(CC2)CN(CC(F)F)CC(c2ccccn2)O3)ccc1OCCO` (centres unmarked) [Compound 296], the pIC50 is below 5.30.

With `COC(C)(C)COc1ccc(C(=O)N2CCC3(CC2)CN(CC(F)(F)F)CC(c2ccccc2)O3)cc1` (centres unmarked) [Compound 60], the pIC50 was above 5.70.

Consider `CC(C)Oc1ccc(C(=O)N2CCC3(CC2)CN(CC(F)F)CC(c2ccc(F)cc2)O3)cc1Cl` (centres unmarked) [Compound 156], for which the pIC50 was above 5.70.

Consider `CC(C)(C)S(=O)(=O)c1ccc(C(=O)N2CCC3(CC2)CN(CC(F)(F)F)CC(c2ccccc2)O3)cc1` (centres unmarked) [Compound 12], for which the pIC50 was above 5.70.

For `CCCN1CC(COC)OC2(CCN(C(=O)c3ccc(OC(C)C)c(C)c3)CC2)C1` (centres unmarked) [Compound 205], the negative logarithm of the IC50 (pIC50) is above 5.70.

Take `COCC1CN(c2ncccn2)CC2(CCN(C(=O)c3ccc(S(=O)(=O)C4CC4)cc3)CC2)O1` (centres unmarked) [Compound 208]: the negative logarithm of the IC50 (pIC50) was below 5.30.

Consider `CC#CCN1CC(CC)OC2(CCN(C(=O)c3ccc(OC(C)C)c(C)c3)CC2)C1` (centres unmarked) [Compound 248], for which the pIC50 was above 5.70.
